The source of these data is the supplement of paper PMC10307832.

Assay in all cases: relative viability (nuclei count vs DMSO), 5 days (fraction); higher = more cells survive
Compound in assay [1]: C1CNCCC1C2=CC(=NN2)C3=CC=NC=C3 + CC(=O)Nc1cccc(-n2c(=O)n(C3CC3)c(=O)c3c(Nc4ccc(I)cc4F)n(C)c(=O)c(C)c32)c1 [Trametinib] (partner 0.02 µM)
In outline: (§1)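 Lung cancer cell lines in 1536-well plates got either a single drug or a fixed anchor-drug dose together with five library-drug doses (not always all listed) in √10 steps, by pin tool, on the day after seeding. Nuclei were counted after 5 days, and relative viability is the treated-to-vehicle ratio of nuclei counts. Values are medians of duplicate plates.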

Compound in assay [2]: C[C@@H](N)c1ccc(C(=O)Nc2ccnc3[nH]ccc23)cc1 + CCNC(=O)c1noc(-c2cc(C(C)C)c(O)cc2O)c1-c1ccc(CN2CCOCC2)cc1 [Luminespib] (partner 0.01 µM)
Put shortly: as §1

Compound in assay [3]: O[C@H]1CC[C@H](Nc2ncc3nc(Nc4c(F)cc(F)cc4F)n([C@H]4CCOC4)c3n2)CC1 [Tanzisertib] + CC(=O)Nc1cccc(-n2c(=O)n(C3CC3)c(=O)c3c(Nc4ccc(I)cc4F)n(C)c(=O)c(C)c32)c1 [Trametinib] (partner 0.02 µM)
In outline: as §1

Compound in assay [4]: O[C@H]1CC[C@H](Nc2ncc3nc(Nc4c(F)cc(F)cc4F)n([C@H]4CCOC4)c3n2)CC1 [Tanzisertib] + Cc1nc(NC(=O)N2CCC[C@H]2C(N)=O)sc1-c1ccnc(C(C)(C)C(F)(F)F)c1 [Alpelisib] (partner 2 µM)
Put shortly:
as §1

As to UMC-11, the relative viability in assay [1] (first compound 0.08 µM) worked out at 0.554; in assay [1] (first compound 0.8 µM) it was 0.776; in assay [1] (first compound 2.53 µM), 0.796; in assay [1] (first compound 8 µM), 0.768; in assay [2] (first compound 0.04 µM), 1.08; in assay [2] (first compound 0.1265 µM) it was 1.06. Also, the relative viability in assay [2] (first compound 0.4 µM) was found to be 1.04; in assay [2] (first compound 1.265 µM) it was 0.989; in assay [2] (first compound 4 µM), 0.826; in assay [3] (first compound 0.08 µM), 0.735; in assay [3] (first compound 0.253 µM) it was 0.695; in assay [3] (first compound 0.8 µM) it was 0.759. Further, the relative viability in assay [3] (first compound 2.53 µM) amounted to 0.719; in assay [3] (first compound 8 µM) it was 0.764; in assay [4] (first compound 0.08 µM), 0.835; in assay [4] (first compound 0.253 µM), 0.987; in assay [4] (first compound 0.8 µM), 0.999; in assay [4] (first compound 2.53 µM) it was 0.956. In assay [4] (first compound 8 µM), the relative viability was 1.13.
